Source: PubChem BioAssay AID192 (DTP/NCI, 2004)
Several values for one entry are separate records, joined by “and”; a condition that tells them apart may be missing. Equal values may be shown once. Inconclusive results and toxic doses are left out. Numbered stars: 1 amine (or outer) side, 2 acyl side, 3 side chain; on linkers, the order of the positions; unused ones are H or OH. Bridge positions count the residues as written; N and C are the ends. Square brackets hold non-standard residues; d marks the D form. Peptide text beside a SMILES is read from it. I, II: the chains in the order shown. Actinocin(1to9) = Cc1c2oc3c(C)ccc(C(=O)[*:2])c3nc-2c(C(=O)[*:1])c(N)c1=O; Hyp = O=C(O)[CH]1C[CH](O)CN1; NMeV = CN[CH](C(=O)O)C(C)C; Sar = CNCC(=O)O

Tested on: BDF1 mice, B16 melanoma ip, median survival T/C
Assay: NCI In Vivo Anticancer Drug Screen. Data for tumor model B16 Melanoma (intraperitoneal) in B6D2F1 (BDF1) mice
Details: endpoint: median survival time, higher = longer survival
Outline: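 Survival or tumor size is measured after treatment of tumor-bearing mice and normalised to the vehicle-treated control group.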

[1] = dose: 50.0 mg/kg/injection, schedule: Q01DX009 (ip), vehicle: saline with Tween-80
[2] = dose: 100.0 mg/kg/injection, schedule: Q01DX009 (ip), vehicle: saline with Tween-80
[3] = dose: 200.0 mg/kg/injection, schedule: Q01DX009 (ip), vehicle: saline with Tween-80
[4] = dose: 0.25 mg/kg/injection, schedule: Q01DX009 (ip), vehicle: saline
[5] = dose: 0.5 mg/kg/injection, schedule: Q01DX009 (ip), vehicle: saline
[6] = dose: 1.0 mg/kg/injection, schedule: Q01DX009 (ip), vehicle: saline
[7] = dose: 2.0 mg/kg/injection, schedule: Q01DX009 (ip), vehicle: saline
[8] = dose: 4.0 mg/kg/injection, schedule: Q01DX009 (ip), vehicle: saline
[9] = dose: 25.0 mg/kg/injection, schedule: Q01DX009 (ip), vehicle: saline with Tween-80
[10] = dose: 6.25 mg/kg/injection, schedule: Q01DX009 (ip), vehicle: saline
[11] = dose: 6.25 mg/kg/injection, schedule: Q01DX009 (ip), vehicle: water
[12] = dose: 12.5 mg/kg/injection, schedule: Q01DX009 (ip), vehicle: saline
[13] = dose: 12.5 mg/kg/injection, schedule: Q01DX009 (ip), vehicle: water
[14] = dose: 25.0 mg/kg/injection, schedule: Q01DX009 (ip), vehicle: saline
[15] = dose: 25.0 mg/kg/injection, schedule: Q01DX009 (ip), vehicle: water
[16] = dose: 50.0 mg/kg/injection, schedule: Q01DX009 (ip), vehicle: saline
[17] = dose: 50.0 mg/kg/injection, schedule: Q01DX009 (ip), vehicle: water
[18] = dose: 100.0 mg/kg/injection, schedule: Q01DX009 (ip), vehicle: saline
[19] = dose: 100.0 mg/kg/injection, schedule: Q04DX003 (ip), vehicle: saline with Tween-80
[20] = dose: 200.0 mg/kg/injection, schedule: Q04DX003 (ip), vehicle: saline with Tween-80
[21] = dose: 400.0 mg/kg/injection, schedule: Q04DX003 (ip), vehicle: saline with Tween-80
[22] = dose: 25.0 mg/kg/injection, schedule: Q01DX009 (ip), vehicle: Klucel (hydroxypropylcellulose) (HPC)
[23] = dose: 50.0 mg/kg/injection, schedule: Q01DX009 (ip), vehicle: Klucel (hydroxypropylcellulose) (HPC)
[24] = dose: 100.0 mg/kg/injection, schedule: Q01DX009 (ip), vehicle: Klucel (hydroxypropylcellulose) (HPC)

`Cl/C(=N\Nc1ccccc1)c1ccccc1` was tested, and the T/C (dose: 1.56 mg/kg/injection, schedule: Q01DX009 (ip), vehicle: Klucel (hydroxypropylcellulose) (HPC)) was 97 % of control, the T/C (dose: 3.13 mg/kg/injection, schedule: Q01DX009 (ip), vehicle: Klucel (hydroxypropylcellulose) (HPC)) was 86 % of control and the T/C (dose: 6.25 mg/kg/injection, schedule: Q01DX009 (ip), vehicle: Klucel (hydroxypropylcellulose) (HPC)) was 90 % of control.

With `Cc1c2oc3c(C)ccc(C(=O)NC4C(=O)NC(C(C)C)C(=O)N5CCCC5C(=O)N(C)CC(=O)N(C)C(C(C)C)C(=O)OC4C)c3nc-2c(C(=O)NC2C(=O)NC(C(C)C)C(=O)N3CC(O)CC3C(=O)N(C)CC(=O)N(C)C(C(C)C)C(=O)OC2C)c(N)c1=O` (stereo not drawn) (I: TV[Hyp][Sar][NMeV] / II: TVP[Sar][NMeV]; ester I:1-I:C, II:1-II:C; linker I:N-II:N via Actinocin(1to9); configuration not given here) the T/C (dose: 100.0 micrograms/kg/injection, schedule: Q01DX009 (ip), vehicle: saline + alcohol) was 152 % of control, the T/C (dose: 150.0 micrograms/kg/injection, schedule: Q01DX009 (ip), vehicle: saline + alcohol) was 158 % of control and the T/C (dose: 225.0 micrograms/kg/injection, schedule: Q04DX003 (ip), vehicle: saline + alcohol) was 120 % of control. For the same compound, the T/C (dose: 450.0 micrograms/kg/injection, schedule: Q04DX003 (ip), vehicle: saline + alcohol) was 121 % of control, the T/C (dose: 600.0 micrograms/kg/injection, schedule: Q04DX003 (ip), vehicle: saline + alcohol) was 95 % of control and the T/C (dose: 900.0 micrograms/kg/injection, schedule: Q04DX003 (ip), vehicle: saline + alcohol) was 88 % of control.

With `NC(CCCCNC(=O)c1ccccc1)C(=O)O` (stereo not drawn) the T/C [1] was 100 % of control, the T/C [2] was 100 % of control and the T/C [3] was 92 % of control. The T/C (dose: 400.0 mg/kg/injection, schedule: Q01DX009 (ip), vehicle: saline with Tween-80) was 95 % of control.

For `NC(c1ccccc1)C(N)c1ccccc1` (stereo not drawn), the T/C (dose: 25.0 mg/kg/injection, schedule: Q04DX003 (ip), vehicle: other) was 97 % of control, the T/C (dose: 50.0 mg/kg/injection, schedule: Q04DX003 (ip), vehicle: other) was 97 % of control and the T/C (dose: 100.0 mg/kg/injection, schedule: Q04DX003 (ip), vehicle: other) was 86 % of control.

With `CC(C)n1c2c([n+](C)c1/C=C/c1ccccc1)C(=O)c1ccccc1C2=O` the T/C (dose: 0.13 mg/kg/injection, schedule: Q01DX009 (ip), vehicle: saline) was 94 % of control, the T/C [4] was 96 % of control and the T/C [5] was 100 % of control. For the same compound, the T/C (dose: 1.0 mg/kg/injection, schedule: Q01DX009 (ip), vehicle: saline with Tween-80) was 94 % of control, the T/C [6] was 102 % of control and the T/C [7] was 90 % of control. For the same compound, the T/C [8] was 97 % of control.

`Cc1ccc(Cl)cc1NC(=O)CCl` was tested, and the T/C [9] was 102 % of control, the T/C [1] was 100 % of control and the T/C [2] was 102 % of control.

In the case of `CNc1nc(N(C)C)nc(N(C)C)n1`, the T/C [10] is reported as 115 % of control, the T/C [11] is reported as 96 % of control and 100 % of control and the T/C [12] is reported as 111 % of control. The T/C [13] was 95 % of control and 102 % of control, the T/C [14] was 111 % of control and the T/C [15] was 94 % of control. The T/C [16] was 116 % of control, the T/C [17] was 100 % of control and 118 % of control and the T/C [18] was 116 % of control. For the same compound, the T/C (dose: 100.0 mg/kg/injection, schedule: Q01DX009 (ip), vehicle: water) was 100 % of control and 105 % of control.

With `Cc1c(CCl)c(C)c(CCl)c(C)c1CCl` the T/C (dose: 3.0 mg/kg/injection, schedule: Q01DX009 (ip), vehicle: Klucel (hydroxypropylcellulose) (HPC)) was 102 % of control, the T/C (dose: 6.0 mg/kg/injection, schedule: Q01DX009 (ip), vehicle: Klucel (hydroxypropylcellulose) (HPC)) was 100 % of control and the T/C (dose: 12.0 mg/kg/injection, schedule: Q01DX009 (ip), vehicle: Klucel (hydroxypropylcellulose) (HPC)) was 100 % of control.

In the case of `COc1c2ccoc2c(OCC=C(C)C)c2oc(=O)ccc12`, the T/C [19] is reported as 94 % of control, the T/C [20] is reported as 105 % of control and the T/C [21] is reported as 97 % of control.

In the case of `COc1cc2cc[n+](C)cc2cc1OC`, the T/C [11] is reported as 95 % of control, the T/C [13] is reported as 95 % of control and the T/C [15] is reported as 97 % of control. The T/C [17] was 92 % of control.

`NC(=O)C=C1c2ccccc2-c2ccccc21` was tested, and the T/C [22] was 100 % of control, the T/C [23] was 100 % of control and the T/C [24] was 94 % of control. The T/C (dose: 200.0 mg/kg/injection, schedule: Q01DX009 (ip), vehicle: Klucel (hydroxypropylcellulose) (HPC)) was 88 % of control and the T/C (dose: 400.0 mg/kg/injection, schedule: Q01DX009 (ip), vehicle: Klucel (hydroxypropylcellulose) (HPC)) was 86 % of control.

`Nc1nc(N)c2c(ccc3c2ccn3Cc2cccc([N+](=O)[O-])c2)n1` was tested, and the T/C (dose: 1.56 mg/kg/injection, schedule: Q01DX009 (ip), vehicle: saline with Tween-80) was 90 % of control, the T/C (dose: 3.12 mg/kg/injection, schedule: Q01DX009 (ip), vehicle: saline with Tween-80) was 100 % of control and the T/C (dose: 6.25 mg/kg/injection, schedule: Q01DX009 (ip), vehicle: saline with Tween-80) was 119 % of control.

With `COC(=O)C(N)CSCc1ccccc1` (stereo not drawn) the T/C [18] was 95 % of control and the T/C (dose: 200.0 mg/kg/injection, schedule: Q01DX009 (ip), vehicle: saline) was 106 % of control.

In the case of `O=C1c2ccc(Br)cc2-c2cc(Br)ccc21`, the T/C [9] is reported as 87 % of control and the T/C [2] is reported as 93 % of control.

`CCC1(C(C)Br)OC2=C(CC(C#N)(C#N)C(C#N)(C#N)C2)O1` (stereo not drawn) was tested, and the T/C (dose: 75.0 mg/kg/injection, schedule: Q04DX003 (ip), vehicle: Klucel (hydroxypropylcellulose) (HPC)) was 87 % of control.

In the case of `O=CN(c1ccccc1)c1ccccc1`, the T/C (dose: 50.0 mg/kg/injection, schedule: Q01DX009 (ip), vehicle: other) is reported as 100 % of control, the T/C (dose: 100.0 mg/kg/injection, schedule: Q01DX009 (ip), vehicle: other) is reported as 100 % of control and the T/C (dose: 200.0 mg/kg/injection, schedule: Q01DX009 (ip), vehicle: other) is reported as 105 % of control. For the same compound, the T/C (dose: 400.0 mg/kg/injection, schedule: Q01DX009 (ip), vehicle: other) was 97 % of control.

With `Cc1ccc(NC(=O)Nc2cccc(C(F)(F)F)c2)cc1NC(=O)Nc1cccc(C(F)(F)F)c1` the T/C [9] was 103 % of control, the T/C [1] was 91 % of control and the T/C [2] was 96 % of control.

`BrCc1ccc2c3c(ccc(CBr)c13)CC2` was tested, and the T/C (dose: 12.5 mg/kg/injection, schedule: Q01DX009 (ip), vehicle: Klucel (hydroxypropylcellulose) (HPC)) was 103 % of control, the T/C [22] was 98 % of control and the T/C [23] was 96 % of control. For the same compound, the T/C [1] was 112 % of control, the T/C [24] was 100 % of control and the T/C [2] was 122 % of control. For the same compound, the T/C [19] was 107 % of control, the T/C [3] was 95 % of control and the T/C [20] was 112 % of control. The T/C [21] was 105 % of control.

`CC(=O)O[C@H]1[C@H]2O[C@]23[C@@H]2CC[C@@H]4C[C@@H](O)CC[C@]4(C)[C@H]2CC[C@]3(C)[C@H]1c1ccc(=O)oc1` was tested, and the T/C (dose: 3.75 mg/kg/injection, schedule: Q01DX009 (ip), vehicle: saline with Tween-80) was 92 % of control and the T/C (dose: 7.5 mg/kg/injection, schedule: Q01DX009 (ip), vehicle: saline with Tween-80) was 90 % of control.

`COc1nc(=O)n(C2C=CC(=O)O2)cc1F` (stereo not drawn) was tested, and the T/C [10] was 101 % of control, the T/C [12] was 95 % of control and the T/C [14] was 89 % of control. The T/C [16] was 87 % of control and the T/C [18] was 91 % of control.

`CCC(=O)c1ccc2c(c1)N(CCCN1CCN(CCO)CC1)c1ccccc1S2` was tested, and the T/C [4] was 100 % of control, the T/C [5] was 95 % of control and the T/C [6] was 92 % of control. The T/C [7] was 89 % of control and the T/C [8] was 105 % of control.
